Measured values published in patent publication US9102697B2, “Trioxacarcins and uses thereof” (President and Fellows of Harvard College, priority 2010, dated 2015).

System: self-complementary duplex 12-mer d(AATTACGTAATT) (SEQ ID NO: 1)
Test: DNA alkylation detected by non-denaturing DNA-gel electrophoresis with in-gel fluorescence
Type: biochemical
Conditions: for alkylation / modification of the DNA duplex: 12-mer duplex with single central G residue, gel in-gel fluorescence and LC-MS; for fluorescent complex with the oligonucleotide detected: two-hour reaction at 23 °C
From the text: Two independent techniques were used to evaluate the reactivity of the synthesized trioxacarcins towards d(AATTACGTAATT) (SEQ ID NO: 1). The first technique involved detecting alkylated DNA oligonucleotides by in-gel fluorescence with non-denaturing DNA-gel electrophoresis. The second technique involved detecting alkylated DNA oligonucleotides using a liquid chromatography-mass spectrometry method.
We began the DNA-alkylation studies by evaluating the activity of DC-45-A2 towards the self-complementary 12-mer d(AATTACGTAATT) (SEQ ID NO: 1) in pH 7 phosphate buffer at different concentrations (FIG. 10). The concentration of the oligonucleotide was held constant at 100 μM while DC-45-A2 was used at five different concentrations ranging from 1 μM to 1000 μM (lanes 4-8) in five separate reactions. At the highest concentrations of DC-45-A2 (500 μM and 1000 μM), a second and distinct fluorescent complex was observed by in-gel fluorescence. […] Chem. 390, 1139 (2008). After incubation for 3 h at 23° C., aliquots of the reactions mixtures were loaded onto a 20% crosslinked polyacrylamide gel. After electrolution, the gels were visualized using an alpha imager, first by irradiating the gel at 302 nm to image fluorescent species in the gel (in-gel fluorescence) and then by treating the gel with ethidium bromide and again irradiating at 302 nm to image fluorescent species in the treated gel. The fluorescence quantum efficiency of an ethidium bromide molecule increases 20- to 25-fold upon intercalation into duplex DNA: J.-B. Le Pecq, C. Paoletti, Anal. Biochem. 17, 100 (1966).
Next, we compared the reactivity of DC-45-A2 to both iso-DC-45-A2 and dideoxy-DC-45-A2 towards the same oligonucleotide in three separate alkylation experiments (FIG. 11).
Having noted the apparent differential reactivity between DC-45-A2 and dideoxy-DC-45-A2, we performed an experiment to visualize the formation of the fluorescent complex at different reaction times (FIG. 12). The reaction of the oligonucleotide with DC-45-A2 reached an approximate maximum of fluorescence intensity between 5 and 10 h, while the reaction of the oligonucleotide with dideoxy-DC-45-A2 reached a maximum fluorescence intensity between 1 and 4 h.
Seven vials (designated vials 1 and vials 3-8) were loaded with alkylation buffer (86.7 μL, see above for preparation). A solution of duplex oligonucleotide d(AATTACGTAATT) (SEQ ID NO: 1) (1.07 mM [concentration of the DNA duplex] in alkylation buffer [see above for preparation], 9.34 μL, 10 nmol, 1 equiv) was added to vials 3-8. Dimethylsulfoxide was added in the following amounts to vials 3-7 (vial 3, 4.00 μL; vial 4, 3.80 μL; vial 5, 3.00 μL; vials 6-7, 2.00 μL). Solutions of DC-45-A2 in dimethylsulfoxide was added to vial 1 and vials 4-8 at the following concentrations and amounts (vial 1, 25 mM solution of DC-45-A2, 4.00 μL; vial 4, 5 mM solution of DC-45-A2, 0.20 μL; vial 5, 5 mM solution of DC-45-A2, 1.00 μL; vial 6, 5 mM solution of D-45-A2, 2.00 μL; vial 7, 25 mM solution of DC-45-A2, 2.00 μL; vial 8, 25 mM solution of DC-45-A2, 4.00 μL). The samples were vortexed, then rotated end-over-end at 23° C. After 2 h, four vials (designated vials 9-12) were prepared containing the following (vial 9, an aliquot of the solution from vial 3 [18.0 μL], DNase I enzyme solution [2.00 μL, Invitrogen 18047-019]; vial 10, an aliquot of the solution from vial 3 [20.0 μL]; vial 11, an aliquot of the solution from vial 5 [18.0 μL], DNase I enzyme [2.00 μL, Invitrogen 18047-019]; vial 12, an aliquot of the solution from vial 5 [20.0 μL]. Vials 9 and 11 were rotated end-over-end at 23° C. for 1 h. Vials 10 and 12 were heated at 95° C. for 15 min. To a final vial (designated vial 2) was added a 10-bp DNA ladder (4 μL, Invitrogen 10821-015) and alkylation buffer (16.0 μL). Vials 2 and 9-12 were diluted with loading buffer (5.00 μL, see above for preparation). A 20-μL aliquot was removed from vials 1 and 3-8. […]

| Compound | alkylation / modification of the DNA duplex (23 °C) | rate of alkylation of the DNA duplex (23 °C) | efficiency of alkylation of the DNA duplex (23 °C, compared with DC-45-A2) | signal intensity of the fluorescent complex (compound and DNA 100 μM, 2 h at 23 °C, compared with DC-45-A2) | fluorescent complex with the oligonucleotide detected (compound and DNA 100 μM) | alkylation / modification of the DNA duplex (23 °C, listed as 1) | stability of the fluorescent DNA complex to heating (reaction mixture heated at 95 °C for 15 min) | alkylation / modification of the DNA duplex (23 °C, listed as Iso-DC-45-A2) |
| --- | --- | --- | --- | --- | --- | --- | --- | --- |
| Dideoxy-DC-45-A2 | found to modify | within minutes | apparently greater efficiency | more intense signal | clearly detected | – | – | – |
| DC-45-A2 | found to modify | half life of hours | – | – | clearly detected | readily alkylated | destroyed | – |
| COc1c2c(c(O)c3c4c(c(C)cc13)[C@H]1O[C@]3(C(OC)OC)O[C@H]1[C@](O)(O4)[C@@]31CO1)C(=O)[C@@H](O)C[C@@H]2O [iso-DC-45-A2, 11,12,13,15-tetraepi-DC-45-A2] | unreactive | – | – | – | – | – | – | not observed to modify |
